# Reference: patent US10245261B2, “Substituted indol-5-ol derivatives and their therapeutic applications” (NantBioScience, Inc., priority 2013, dated 2019)
# Key:
# Experiment in all cases: KinaseProfiler kinase assay
# Format in all cases: biochemical
# ROCK-II(r) = ROCK-II(r) (Rattus norvegicus, UniProt Q62868)
# In short: (§1)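 Buffer 20 mM MOPS, 1 mM EDTA, 0.01% Brij-35, 5% glycerol, 0.1% β-mercaptoethanol, 1 mg/mL BSA for compound dilution; reaction at pH 7.0 with [γ-33P]ATP, 40 min RT; filtermat/scintillation read-out; 0%/100% set by no-kinase and phosphopeptide wells.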
# CK1γ3(h) = CK1γ3(h) (Homo sapiens, UniProt Q9Y6M4)
# In short: as §1
# EphA8(h) = EphA8(h) (Homo sapiens, UniProt P29322)
# In short: as §1
# MSSK1(h) = MSSK1(h) (Homo sapiens, UniProt Q9UPE1)
# In short: as §1
# Flt3(D835Y)(h) = Flt3(D835Y)(h) (Homo sapiens, UniProt P36888, D835Y)
# In short: as §1
# MKK6(h) = MKK6(h) (Homo sapiens, UniProt P52564)
# In short: as §1
# TAO3(h) = TAO3(h) (Homo sapiens, UniProt Q9H2K8)
# In short: as §1
# [1] = molecular target: PI3 Kinase (p110α(E545K)/p85α)(h) (Homo sapiens, UniProt P42336, E545K)
# In short: as §1
# Fyn(h) = Fyn(h) (Homo sapiens, UniProt P06241)
# In short: as §1
# MAPK1(h) = MAPK1(h) (Homo sapiens, UniProt P27361)
# In short: as §1
# CK1δ(h) = CK1δ(h) (Homo sapiens, UniProt P48730)
# In short: as §1
# [2] = molecular target: PI3 Kinase (p110β/p85β)(m) (Mus musculus, UniProt Q8BTI9)
# In short: as §1
# PIP5K1α(h) = PIP5K1α(h) (Homo sapiens, UniProt Q99755)
# In short: as §1
# HIPK1(h) = HIPK1(h) (Homo sapiens, UniProt Q86Z02)
# In short: as §1
# [3] = molecular target: PI3 Kinase (p110α(E545K)/p85α)(m) (Mus musculus, UniProt P42337, E545K)
# In short: as §1
# STK33(h) = STK33(h) (Homo sapiens, UniProt Q9BYT3)
# In short: as §1
# GRK6(h) = GRK6(h) (Homo sapiens, UniProt P43250)
# In short: as §1
# Ron(h) = Ron(h) (Homo sapiens, UniProt Q04912)
# In short: as §1
# TGFBR1(h) = TGFBR1(h) (Homo sapiens, UniProt P36897)
# In short: as §1
# ErbB4(h) = ErbB4(h) (Homo sapiens, UniProt Q15303)
# In short: as §1
# DYRK2(h) = DYRK2(h) (Homo sapiens, UniProt Q92630)
# In short: as §1
# HIPK3(h) = HIPK3(h) (Homo sapiens, UniProt Q9H422)
# In short: as §1
# MST1(h) = MST1(h) (Homo sapiens, UniProt Q13043)
# In short: as §1
# cKit(V560G)(h) = cKit(V560G)(h) (Homo sapiens, UniProt P10721, V560G)
# In short: as §1
# PKCβI(h) = PKCβI(h) (Homo sapiens, UniProt P05771)
# In short: as §1
# Fes(h) = Fes(h) (Homo sapiens, UniProt P07332)
# In short: as §1
# BTK(h) = BTK(h) (Homo sapiens, UniProt Q06187)
# In short: as §1
# PKBα(h) = PKBα(h) (Homo sapiens, UniProt P31749)
# In short: as §1
# IRAK1(h) = IRAK1(h) (Homo sapiens, UniProt P51617)
# In short: as §1
# Pyk2(h) = Pyk2(h) (Homo sapiens, UniProt Q14289)
# In short: as §1
# PKCζ(h) = PKCζ(h) (Homo sapiens, UniProt Q05513)
# In short: as §1
# PI3 Kinase (p110β/p85β)(m), sequence (Q8BTI9 whole entry): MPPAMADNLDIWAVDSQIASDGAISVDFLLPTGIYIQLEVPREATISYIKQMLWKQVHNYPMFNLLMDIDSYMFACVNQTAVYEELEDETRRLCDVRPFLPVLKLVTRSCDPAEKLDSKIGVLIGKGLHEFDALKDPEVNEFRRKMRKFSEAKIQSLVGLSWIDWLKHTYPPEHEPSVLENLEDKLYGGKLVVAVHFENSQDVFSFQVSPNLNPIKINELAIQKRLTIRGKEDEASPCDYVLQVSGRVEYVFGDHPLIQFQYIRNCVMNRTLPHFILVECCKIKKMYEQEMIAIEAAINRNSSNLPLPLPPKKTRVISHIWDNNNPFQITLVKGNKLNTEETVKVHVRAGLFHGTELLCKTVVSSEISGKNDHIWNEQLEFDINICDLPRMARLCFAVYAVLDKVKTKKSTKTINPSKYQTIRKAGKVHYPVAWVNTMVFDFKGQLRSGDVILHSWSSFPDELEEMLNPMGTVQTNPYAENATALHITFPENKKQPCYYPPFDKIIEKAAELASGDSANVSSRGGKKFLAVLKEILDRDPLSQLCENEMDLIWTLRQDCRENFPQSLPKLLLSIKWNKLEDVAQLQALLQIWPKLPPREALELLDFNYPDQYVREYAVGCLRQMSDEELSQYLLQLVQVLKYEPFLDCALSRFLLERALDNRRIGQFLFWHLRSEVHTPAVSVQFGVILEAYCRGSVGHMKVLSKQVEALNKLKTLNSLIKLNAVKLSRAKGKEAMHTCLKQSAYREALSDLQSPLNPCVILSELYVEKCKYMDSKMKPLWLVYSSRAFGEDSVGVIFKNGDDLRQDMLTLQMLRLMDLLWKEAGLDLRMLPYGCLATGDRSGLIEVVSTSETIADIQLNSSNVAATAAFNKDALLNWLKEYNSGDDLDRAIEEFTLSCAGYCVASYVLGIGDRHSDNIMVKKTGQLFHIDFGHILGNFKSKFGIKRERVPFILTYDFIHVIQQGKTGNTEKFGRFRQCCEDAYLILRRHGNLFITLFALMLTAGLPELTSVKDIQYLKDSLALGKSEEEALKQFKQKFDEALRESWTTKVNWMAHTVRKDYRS
# PI3 Kinase (p110β/p85β)(m), sequence (O08908 whole entry partner): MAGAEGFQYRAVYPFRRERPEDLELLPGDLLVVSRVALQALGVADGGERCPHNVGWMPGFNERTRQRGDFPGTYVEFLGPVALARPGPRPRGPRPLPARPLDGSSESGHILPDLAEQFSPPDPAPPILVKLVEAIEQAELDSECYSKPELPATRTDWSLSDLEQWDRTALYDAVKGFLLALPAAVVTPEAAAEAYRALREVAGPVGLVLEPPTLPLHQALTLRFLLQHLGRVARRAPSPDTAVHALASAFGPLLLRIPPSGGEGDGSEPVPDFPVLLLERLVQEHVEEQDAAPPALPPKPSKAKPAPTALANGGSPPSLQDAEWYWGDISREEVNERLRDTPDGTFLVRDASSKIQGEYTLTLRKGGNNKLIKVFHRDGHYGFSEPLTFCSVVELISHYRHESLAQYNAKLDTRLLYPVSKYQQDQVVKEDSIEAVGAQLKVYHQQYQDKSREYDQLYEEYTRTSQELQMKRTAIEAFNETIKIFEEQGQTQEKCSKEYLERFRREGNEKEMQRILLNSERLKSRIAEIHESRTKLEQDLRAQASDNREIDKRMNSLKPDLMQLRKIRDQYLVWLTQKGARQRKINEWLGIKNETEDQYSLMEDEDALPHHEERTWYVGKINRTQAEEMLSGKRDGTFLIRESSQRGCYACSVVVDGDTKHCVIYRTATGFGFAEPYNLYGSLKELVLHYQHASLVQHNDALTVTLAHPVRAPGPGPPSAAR
# TGFBR1(h), sequence (P36897 34-503): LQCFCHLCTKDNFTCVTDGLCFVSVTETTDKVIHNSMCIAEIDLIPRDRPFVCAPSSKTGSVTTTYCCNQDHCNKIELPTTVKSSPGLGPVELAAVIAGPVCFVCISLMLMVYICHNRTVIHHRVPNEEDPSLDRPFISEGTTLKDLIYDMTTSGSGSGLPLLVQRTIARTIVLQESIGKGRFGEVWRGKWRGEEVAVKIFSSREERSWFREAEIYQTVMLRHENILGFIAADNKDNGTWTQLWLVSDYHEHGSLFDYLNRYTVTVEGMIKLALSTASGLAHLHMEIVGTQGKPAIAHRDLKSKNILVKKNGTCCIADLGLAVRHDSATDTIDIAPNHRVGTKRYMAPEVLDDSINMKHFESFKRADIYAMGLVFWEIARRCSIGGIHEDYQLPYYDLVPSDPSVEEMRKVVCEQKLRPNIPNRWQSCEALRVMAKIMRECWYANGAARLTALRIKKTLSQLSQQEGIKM
# CK1δ(h), sequence (P48730 whole entry): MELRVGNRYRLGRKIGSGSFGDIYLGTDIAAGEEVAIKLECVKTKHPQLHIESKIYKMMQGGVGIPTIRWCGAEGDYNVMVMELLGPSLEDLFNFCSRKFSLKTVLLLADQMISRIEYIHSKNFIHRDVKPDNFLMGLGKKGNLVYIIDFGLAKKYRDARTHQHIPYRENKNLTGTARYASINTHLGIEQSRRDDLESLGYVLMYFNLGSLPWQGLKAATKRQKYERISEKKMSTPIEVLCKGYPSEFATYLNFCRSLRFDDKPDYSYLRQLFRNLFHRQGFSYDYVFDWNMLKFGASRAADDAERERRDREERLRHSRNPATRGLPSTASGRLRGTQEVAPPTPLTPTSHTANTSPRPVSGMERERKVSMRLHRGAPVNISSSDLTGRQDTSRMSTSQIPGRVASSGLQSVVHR
# Fes(h), sequence (P07332 whole entry): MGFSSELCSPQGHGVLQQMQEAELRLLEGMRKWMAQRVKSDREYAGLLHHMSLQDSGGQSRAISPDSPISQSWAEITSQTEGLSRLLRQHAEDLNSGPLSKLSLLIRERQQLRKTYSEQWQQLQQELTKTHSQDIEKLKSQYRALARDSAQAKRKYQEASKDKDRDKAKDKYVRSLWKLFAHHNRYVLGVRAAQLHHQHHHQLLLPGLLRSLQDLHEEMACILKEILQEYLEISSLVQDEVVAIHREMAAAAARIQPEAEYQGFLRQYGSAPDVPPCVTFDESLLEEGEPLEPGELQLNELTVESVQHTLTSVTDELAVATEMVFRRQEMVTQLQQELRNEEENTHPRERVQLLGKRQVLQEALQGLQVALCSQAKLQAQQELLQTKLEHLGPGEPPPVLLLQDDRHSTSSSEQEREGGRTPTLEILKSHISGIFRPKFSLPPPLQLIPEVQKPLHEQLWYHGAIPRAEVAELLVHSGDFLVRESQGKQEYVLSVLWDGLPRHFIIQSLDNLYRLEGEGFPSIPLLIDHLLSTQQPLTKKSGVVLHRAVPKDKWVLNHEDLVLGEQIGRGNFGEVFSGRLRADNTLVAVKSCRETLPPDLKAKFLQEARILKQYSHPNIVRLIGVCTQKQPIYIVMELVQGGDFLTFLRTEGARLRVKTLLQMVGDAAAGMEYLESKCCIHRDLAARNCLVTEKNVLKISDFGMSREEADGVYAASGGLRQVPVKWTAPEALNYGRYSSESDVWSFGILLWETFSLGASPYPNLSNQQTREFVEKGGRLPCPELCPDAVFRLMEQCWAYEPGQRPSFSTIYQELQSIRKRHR
# PKCζ(h), sequence (Q05513 whole entry): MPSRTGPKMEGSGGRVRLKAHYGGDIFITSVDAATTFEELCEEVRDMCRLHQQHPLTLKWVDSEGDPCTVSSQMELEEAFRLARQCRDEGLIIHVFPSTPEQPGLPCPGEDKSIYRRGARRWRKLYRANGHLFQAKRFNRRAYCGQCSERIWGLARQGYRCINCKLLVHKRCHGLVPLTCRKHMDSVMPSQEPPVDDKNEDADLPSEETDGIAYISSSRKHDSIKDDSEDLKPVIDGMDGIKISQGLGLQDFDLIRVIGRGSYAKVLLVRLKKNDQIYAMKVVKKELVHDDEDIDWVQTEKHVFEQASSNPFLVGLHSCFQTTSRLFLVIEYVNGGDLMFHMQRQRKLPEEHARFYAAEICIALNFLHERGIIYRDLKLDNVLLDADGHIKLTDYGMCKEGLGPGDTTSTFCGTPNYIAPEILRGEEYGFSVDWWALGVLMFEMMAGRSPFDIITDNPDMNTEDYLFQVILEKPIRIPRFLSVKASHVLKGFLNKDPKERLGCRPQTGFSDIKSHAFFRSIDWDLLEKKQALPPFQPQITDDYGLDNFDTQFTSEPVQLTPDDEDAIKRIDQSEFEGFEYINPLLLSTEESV
# MST1(h), sequence (Q13043 whole entry): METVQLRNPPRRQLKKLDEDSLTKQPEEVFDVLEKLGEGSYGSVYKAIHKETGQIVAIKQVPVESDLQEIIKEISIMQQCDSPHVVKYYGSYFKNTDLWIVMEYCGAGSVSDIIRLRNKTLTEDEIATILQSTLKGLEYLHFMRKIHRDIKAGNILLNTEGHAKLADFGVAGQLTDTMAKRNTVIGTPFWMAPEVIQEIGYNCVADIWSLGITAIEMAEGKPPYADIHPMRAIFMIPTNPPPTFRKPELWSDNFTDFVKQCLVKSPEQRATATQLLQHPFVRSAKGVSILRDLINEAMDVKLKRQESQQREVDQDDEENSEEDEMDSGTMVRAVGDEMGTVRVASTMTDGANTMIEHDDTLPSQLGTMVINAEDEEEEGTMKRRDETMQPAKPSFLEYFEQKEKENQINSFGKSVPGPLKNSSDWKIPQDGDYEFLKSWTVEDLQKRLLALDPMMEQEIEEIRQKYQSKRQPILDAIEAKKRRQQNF
# CK1γ3(h), sequence (Q9Y6M4 whole entry): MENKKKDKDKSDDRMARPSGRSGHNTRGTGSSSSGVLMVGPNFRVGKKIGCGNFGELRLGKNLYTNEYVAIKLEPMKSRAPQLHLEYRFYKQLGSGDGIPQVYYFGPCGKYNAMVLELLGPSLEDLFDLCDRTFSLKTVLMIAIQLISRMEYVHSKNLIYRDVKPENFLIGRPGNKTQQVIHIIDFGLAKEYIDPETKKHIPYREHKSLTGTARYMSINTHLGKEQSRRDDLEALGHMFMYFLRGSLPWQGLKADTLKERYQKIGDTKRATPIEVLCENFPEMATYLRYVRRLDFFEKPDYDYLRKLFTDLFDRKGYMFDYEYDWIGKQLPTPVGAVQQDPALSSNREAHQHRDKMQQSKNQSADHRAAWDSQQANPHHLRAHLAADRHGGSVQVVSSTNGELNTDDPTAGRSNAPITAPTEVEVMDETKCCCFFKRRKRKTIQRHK
SMILES,inhibition at 0.1 µM (ROCK-II(r)) [%],inhibition at 0.1 µM (CK1γ3(h)) [%],inhibition at 0.1 µM (EphA8(h)) [%],inhibition at 0.1 µM (MSSK1(h)) [%],inhibition at 0.1 µM (Flt3(D835Y)(h)) [%],inhibition at 0.1 µM (MKK6(h)) [%],inhibition at 0.1 µM (TAO3(h)) [%],inhibition at 0.1 µM [1] [%],inhibition at 0.1 µM (Fyn(h)) [%],inhibition at 0.1 µM (MAPK1(h)) [%],inhibition at 0.1 µM (CK1δ(h)) [%],inhibition at 0.1 µM [2] [%],inhibition at 0.1 µM (PIP5K1α(h)) [%],inhibition at 0.1 µM (HIPK1(h)) [%],inhibition at 0.1 µM [3] [%],inhibition at 0.1 µM (STK33(h)) [%],inhibition at 0.1 µM (GRK6(h)) [%],inhibition at 0.1 µM (Ron(h)) [%],inhibition at 0.1 µM (TGFBR1(h)) [%],inhibition at 0.1 µM (ErbB4(h)) [%],also measured
Cc1cc2c(F)c(Oc3nc(Nc4cc(C5CC5)[nH]n4)cc(N4CCN(C)CC4)n3)ccc2[nH]1 [Compound 10],13,-12,33,22,99,-5,20,-2,102,-4,-21,-1,-2,-6,0,8,-5,34,66,13,inhibition at 0.1 µM (DYRK2(h)): -6%; inhibition at 0.1 µM (HIPK3(h)): -1%; inhibition at 0.1 µM (MST1(h)): 78%; inhibition at 0.1 µM (cKit(V560G)(h)): 89%; inhibition at 0.1 µM (PKCβI(h)): 2%; inhibition at 0.1 µM (Fes(h)): 48%; inhibition at 0.1 µM (BTK(h)): 50%; inhibition at 0.1 µM (PKBα(h)): -24%; inhibition at 0.1 µM (IRAK1(h)): -2%; inhibition at 0.1 µM (Pyk2(h)): 64%; inhibition at 0.1 µM (PKCζ(h)): -7%
"Cc1cc2c(F)c(Oc3nc(Nc4cc(C5CC5)[nH]n4)cc(N4CCNCC4)n3)ccc2[nH]1 [Compound 11, N-(5-cyclopropyl-1H-pyrazol-3-yl)-2-((4-fluoro-2-methyl-1H-indol-5-yl)oxy)-6-(piperazin-1-yl)pyrimidin-4-amine]",16,-9,39,0,101,-13,8,2,99,-10,-3,-1,-3,-12,1,-4,-14,43,47,-5,inhibition at 0.1 µM (DYRK2(h)): -1%; inhibition at 0.1 µM (HIPK3(h)): -3%; inhibition at 0.1 µM (MST1(h)): 74%; inhibition at 0.1 µM (cKit(V560G)(h)): 94%; inhibition at 0.1 µM (PKCβI(h)): 5%; inhibition at 0.1 µM (Fes(h)): 54%; inhibition at 0.1 µM (BTK(h)): 71%; inhibition at 0.1 µM (PKBα(h)): -4%; inhibition at 0.1 µM (IRAK1(h)): -9%; inhibition at 0.1 µM (Pyk2(h)): 63%; inhibition at 0.1 µM (PKCζ(h)): -14%
